# Experimental data from ChEMBL document CHEMBL1201862, “PubChem BioAssay data set” (2004).
# The source made the active and inactive calls.
# Legend:
# [1] = molecular target: Melanin-concentrating hormone receptor 1 (Homo sapiens, UniProt Q99705); experiment: Fluorescence-based counterscreen for antagonists of the G-protein coupled receptor 7 (GPR7): cell-based high throughput dose response assay to identify antagonists of the melanin-concentrating hormone receptor 1 (MCHR1).; format: functional
# Bcl-2-like protein 10 = Bcl-2-like protein 10 (Homo sapiens, UniProt Q9HD36); experiment: displacers of TR3 peptide from Bcl-B, primary screen, selectivity assay for Bfl-1 inhibitor project, biochemical, fluorescence polarization, FITC-TR3 peptide (AID 748);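 also: fluorescence polarization from a fluorescein-labelled TR3 peptide binding purified Bcl-B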
# Protein Rev [2] = molecular target: Protein Rev (Human immunodeficiency virus type 1 group M subtype B (isolate WMJ22)(HIV-1), UniProt P05866); experiment: HIV-1 Rev-RRE RNA binding disruptors, dose response, biochemical, protein-RNA interaction (AID 842); design: species or system Human immunodeficiency virus 1
# Vero = experiment: host cell cytotoxicity of antiviral hits, dose response, cytotoxicity control for West Nile virus antiviral project, secondary assay (AID 1650); format: functional; conditions: Chlorocebus sabaeus
# [3] = molecular target: T1, Short transient receptor potential channel 4 (Mus musculus, UniProt Q9QUQ5); experiment: mouse TRPC4 channel inhibitors, dose response, cell-based, HEK293 TRPC4/mu-opioid, Fluo-4 calcium (AID 434942); format: functional;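 also: potency of inhibitors blocking the TRPC4 calcium response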
# T1 sequence (Q9QUQ5 whole entry): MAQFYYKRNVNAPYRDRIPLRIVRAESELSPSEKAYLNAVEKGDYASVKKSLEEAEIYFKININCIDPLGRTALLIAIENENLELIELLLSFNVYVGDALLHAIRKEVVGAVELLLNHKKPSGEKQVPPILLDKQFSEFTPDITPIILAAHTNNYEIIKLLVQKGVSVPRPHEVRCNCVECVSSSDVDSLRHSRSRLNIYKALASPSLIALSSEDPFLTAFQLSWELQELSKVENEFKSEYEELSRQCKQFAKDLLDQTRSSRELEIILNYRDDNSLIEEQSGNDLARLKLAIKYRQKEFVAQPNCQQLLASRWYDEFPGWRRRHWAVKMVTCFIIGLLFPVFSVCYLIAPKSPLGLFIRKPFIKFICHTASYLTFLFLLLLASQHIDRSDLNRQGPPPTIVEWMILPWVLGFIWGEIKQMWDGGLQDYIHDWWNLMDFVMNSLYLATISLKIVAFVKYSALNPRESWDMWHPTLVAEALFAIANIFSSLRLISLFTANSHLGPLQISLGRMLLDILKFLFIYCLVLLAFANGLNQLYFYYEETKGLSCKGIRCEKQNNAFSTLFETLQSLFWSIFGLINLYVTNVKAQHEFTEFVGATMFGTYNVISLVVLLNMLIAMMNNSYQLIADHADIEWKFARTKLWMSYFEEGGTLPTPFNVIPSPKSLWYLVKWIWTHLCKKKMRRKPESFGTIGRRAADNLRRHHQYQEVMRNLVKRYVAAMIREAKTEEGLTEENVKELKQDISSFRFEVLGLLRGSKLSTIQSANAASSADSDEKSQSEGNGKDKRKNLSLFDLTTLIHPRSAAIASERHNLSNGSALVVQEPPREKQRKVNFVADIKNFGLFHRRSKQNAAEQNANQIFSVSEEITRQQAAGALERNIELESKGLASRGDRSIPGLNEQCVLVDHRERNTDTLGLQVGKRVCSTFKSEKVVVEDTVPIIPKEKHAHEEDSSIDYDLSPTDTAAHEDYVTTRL
# [4] = molecular target: T2, DNA repair and recombination protein RAD54-like (Homo sapiens, UniProt Q92698); experiment: inhibitors of human RAD54 branch migration, confirmation, biochemical, fluorescence, cherry-picked samples, dose series (AID 651657); format: functional
# T2 sequence (Q92698 whole entry): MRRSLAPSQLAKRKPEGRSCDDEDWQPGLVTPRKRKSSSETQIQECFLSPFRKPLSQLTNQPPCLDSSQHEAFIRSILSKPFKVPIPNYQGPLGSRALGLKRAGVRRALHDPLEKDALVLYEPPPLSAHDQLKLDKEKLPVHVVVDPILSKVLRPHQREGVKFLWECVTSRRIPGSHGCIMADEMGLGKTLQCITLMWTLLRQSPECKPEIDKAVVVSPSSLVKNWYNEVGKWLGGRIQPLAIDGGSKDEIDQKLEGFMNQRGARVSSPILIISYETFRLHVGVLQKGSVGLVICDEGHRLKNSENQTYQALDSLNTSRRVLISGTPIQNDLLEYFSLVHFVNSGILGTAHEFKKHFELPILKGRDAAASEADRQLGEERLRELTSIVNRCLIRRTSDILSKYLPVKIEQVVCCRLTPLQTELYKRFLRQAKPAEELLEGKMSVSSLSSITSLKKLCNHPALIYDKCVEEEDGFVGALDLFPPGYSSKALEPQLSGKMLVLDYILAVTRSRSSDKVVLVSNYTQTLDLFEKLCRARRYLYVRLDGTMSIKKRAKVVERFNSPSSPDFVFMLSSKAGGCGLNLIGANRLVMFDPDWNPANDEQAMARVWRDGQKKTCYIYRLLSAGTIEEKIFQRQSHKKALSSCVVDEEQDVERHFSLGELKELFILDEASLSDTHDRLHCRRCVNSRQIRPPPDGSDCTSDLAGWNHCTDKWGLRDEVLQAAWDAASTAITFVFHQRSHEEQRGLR
# [5] = molecular target: T3, DNA repair protein RAD52 homolog (Homo sapiens, UniProt P43351); format: functional, biochemical
# T3 sequence (P43351 whole entry): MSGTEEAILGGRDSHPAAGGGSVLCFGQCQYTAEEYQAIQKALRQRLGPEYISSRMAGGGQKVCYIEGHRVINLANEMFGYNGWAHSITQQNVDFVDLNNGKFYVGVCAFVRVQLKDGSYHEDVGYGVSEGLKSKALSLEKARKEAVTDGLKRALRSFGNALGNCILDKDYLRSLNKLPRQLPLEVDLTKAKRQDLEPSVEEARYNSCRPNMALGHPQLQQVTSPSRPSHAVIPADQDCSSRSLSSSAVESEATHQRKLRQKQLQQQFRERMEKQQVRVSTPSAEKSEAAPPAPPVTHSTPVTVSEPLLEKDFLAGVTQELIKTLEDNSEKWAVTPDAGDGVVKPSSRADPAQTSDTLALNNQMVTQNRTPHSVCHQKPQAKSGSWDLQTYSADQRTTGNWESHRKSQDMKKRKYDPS
# [6] = molecular target: T4, Eukaryotic translation initiation factor 2-alpha kinase 3 (Homo sapiens, UniProt Q9NZJ5); experiment: Dose response cell-based high-throughput screening assay to measure PERK inhibition. [Related pubchem assays: 1416 ]; format: functional
# [7] = molecular target: T4, Eukaryotic translation initiation factor 2-alpha kinase 3; experiment: Counterscreen assay for PERK inhibitors: Dose response cell-based high throughput screening assay to measure inhibition of PERK at 6 hours. [Related pubchem assays: 1522, 1416 ]; format: functional
# Tumor necrosis factor = Tumor necrosis factor (Homo sapiens, UniProt P01375); experiment: TNFa-triggered NF-kB activation inhibitors, SAR follow-up, cell-based, revised (AID 2337); format: functional
# [8] = molecular target: Nucleotide-binding oligomerization domain-containing protein 1 (Homo sapiens, UniProt Q9Y239); experiment: NOD1 signaling inhibitors, SAR follow-up, revised (AID 2333); format: functional
# [9] = molecular target: Nucleotide-binding oligomerization domain-containing protein 2 (Homo sapiens, UniProt Q9HC29); experiment: PubChem AID 2334; format: functional
# HEK293 = experiment: cells; conditions: Homo sapiens;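 also: cells exposed to compound for 14 hours overnight before viability readout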
# [10] = molecular target: Protein phosphatase methylesterase 1 (Homo sapiens, UniProt Q9Y570); experiment: PME-1 inhibitor potency by in-gel ABPP, dose response, selectivity assay for PME-1 inhibitor project, cell lysate, mouse brain cytosol, FP-rhodamine, panel member PME-1 Assay Panel member description: Inhibition of endogenously expressed PME-1 (AID 2366)
# Protein Rev [11] = molecular target: Protein Rev (Human immunodeficiency virus type 1 group M subtype B (isolate HXB2)(HIV-1), UniProt P04618); experiment: inhibitors of Rev binding to RRE RNA, dose response, biochemical, fluorescence polarization, HIV-1 (AID 434976); design: species or system Human immunodeficiency virus 1
# [12] = molecular target: Female germline-specific tumor suppressor gld-1 (Caenorhabditis elegans, UniProt Q17339); experiment: inhibitors of GLD-1 binding to TGE RNA, dose response, biochemical, fluorescence polarization, C. elegans (AID 2802);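 also: fluorescence polarization of labeled TGE RNA bound by purified gld-1 protein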
# [13] = molecular target: T5, Polyadenylate-binding protein 1 (Homo sapiens, UniProt P11940); experiment: PABP1 MLLE–PAM2 interaction inhibitors, dose response, miRNA deadenylation inhibitor project, biochemical, fluorescence polarization, Cy5-PAM2 peptide, secondary (AID 602260); format: functional; conditions: read-out: IC50_Mean
# [14] = molecular target: T5, Polyadenylate-binding protein 1; experiment: PABP1 MLLE–PAM2 binding inhibitor potency, dose response, biochemical, fluorescence polarization, FITC-PAM2 peptide (AID 602259); format: functional; conditions: read-out: IC50_Mean
# T5 sequence (P11940 whole entry): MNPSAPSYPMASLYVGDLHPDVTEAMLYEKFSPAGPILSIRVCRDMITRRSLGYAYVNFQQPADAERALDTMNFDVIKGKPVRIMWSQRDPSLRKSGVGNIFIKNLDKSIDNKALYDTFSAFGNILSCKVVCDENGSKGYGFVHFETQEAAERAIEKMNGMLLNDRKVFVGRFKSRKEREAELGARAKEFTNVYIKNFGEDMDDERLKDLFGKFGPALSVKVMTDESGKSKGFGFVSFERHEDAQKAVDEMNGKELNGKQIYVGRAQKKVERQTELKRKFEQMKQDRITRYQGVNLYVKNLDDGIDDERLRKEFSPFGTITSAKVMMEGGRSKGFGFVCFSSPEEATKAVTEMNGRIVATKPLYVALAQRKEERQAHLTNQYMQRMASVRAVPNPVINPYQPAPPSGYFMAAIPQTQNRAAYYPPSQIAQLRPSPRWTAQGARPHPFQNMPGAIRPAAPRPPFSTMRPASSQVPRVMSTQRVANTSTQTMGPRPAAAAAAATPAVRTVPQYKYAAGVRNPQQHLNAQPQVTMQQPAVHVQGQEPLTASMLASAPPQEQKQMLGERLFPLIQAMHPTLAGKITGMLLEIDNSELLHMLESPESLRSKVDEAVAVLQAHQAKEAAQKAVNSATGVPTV
# T4 sequence (Q9NZJ5 whole entry): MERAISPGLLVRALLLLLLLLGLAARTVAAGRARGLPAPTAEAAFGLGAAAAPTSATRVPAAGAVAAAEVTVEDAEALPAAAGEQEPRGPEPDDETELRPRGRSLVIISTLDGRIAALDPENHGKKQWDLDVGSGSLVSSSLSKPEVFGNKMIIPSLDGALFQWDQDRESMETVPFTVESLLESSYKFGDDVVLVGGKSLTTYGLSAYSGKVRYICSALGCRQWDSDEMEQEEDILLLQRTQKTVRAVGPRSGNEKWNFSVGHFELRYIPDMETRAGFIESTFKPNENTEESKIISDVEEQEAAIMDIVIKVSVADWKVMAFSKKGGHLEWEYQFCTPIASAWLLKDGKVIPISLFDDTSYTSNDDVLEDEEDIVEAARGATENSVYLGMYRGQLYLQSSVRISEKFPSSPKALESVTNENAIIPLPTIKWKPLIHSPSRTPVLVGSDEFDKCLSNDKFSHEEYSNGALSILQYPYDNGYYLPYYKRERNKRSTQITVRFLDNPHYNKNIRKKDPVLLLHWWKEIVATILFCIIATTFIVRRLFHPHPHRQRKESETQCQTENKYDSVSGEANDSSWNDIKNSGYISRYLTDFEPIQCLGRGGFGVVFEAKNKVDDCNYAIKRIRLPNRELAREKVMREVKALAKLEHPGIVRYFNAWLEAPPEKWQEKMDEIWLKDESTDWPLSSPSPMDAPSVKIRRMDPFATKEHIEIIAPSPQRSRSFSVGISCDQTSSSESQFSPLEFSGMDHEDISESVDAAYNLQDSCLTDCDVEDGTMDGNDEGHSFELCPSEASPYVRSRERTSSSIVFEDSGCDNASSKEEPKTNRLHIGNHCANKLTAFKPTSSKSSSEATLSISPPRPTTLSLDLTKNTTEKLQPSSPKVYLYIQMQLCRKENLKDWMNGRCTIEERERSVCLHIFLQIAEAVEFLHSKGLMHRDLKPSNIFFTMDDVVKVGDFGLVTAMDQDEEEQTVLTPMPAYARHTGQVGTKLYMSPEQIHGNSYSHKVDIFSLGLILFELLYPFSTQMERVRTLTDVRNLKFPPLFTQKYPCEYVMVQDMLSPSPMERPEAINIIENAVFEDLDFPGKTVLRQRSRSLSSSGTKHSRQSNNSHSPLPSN
# Female germline-specific tumor suppressor gld-1, sequence (Q17339 whole entry): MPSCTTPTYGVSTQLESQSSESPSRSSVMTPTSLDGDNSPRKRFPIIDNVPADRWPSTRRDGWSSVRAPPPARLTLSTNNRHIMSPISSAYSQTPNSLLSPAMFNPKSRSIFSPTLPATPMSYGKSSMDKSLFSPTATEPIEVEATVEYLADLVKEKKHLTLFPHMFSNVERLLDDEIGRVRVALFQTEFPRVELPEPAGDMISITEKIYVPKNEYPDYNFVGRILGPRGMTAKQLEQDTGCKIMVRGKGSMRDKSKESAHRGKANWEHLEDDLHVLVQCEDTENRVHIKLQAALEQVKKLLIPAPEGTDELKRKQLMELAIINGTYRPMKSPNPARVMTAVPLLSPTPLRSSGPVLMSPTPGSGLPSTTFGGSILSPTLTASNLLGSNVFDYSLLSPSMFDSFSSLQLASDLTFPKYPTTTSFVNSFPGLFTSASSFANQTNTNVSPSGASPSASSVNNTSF
# Melanin-concentrating hormone receptor 1, sequence (Q99705 whole entry): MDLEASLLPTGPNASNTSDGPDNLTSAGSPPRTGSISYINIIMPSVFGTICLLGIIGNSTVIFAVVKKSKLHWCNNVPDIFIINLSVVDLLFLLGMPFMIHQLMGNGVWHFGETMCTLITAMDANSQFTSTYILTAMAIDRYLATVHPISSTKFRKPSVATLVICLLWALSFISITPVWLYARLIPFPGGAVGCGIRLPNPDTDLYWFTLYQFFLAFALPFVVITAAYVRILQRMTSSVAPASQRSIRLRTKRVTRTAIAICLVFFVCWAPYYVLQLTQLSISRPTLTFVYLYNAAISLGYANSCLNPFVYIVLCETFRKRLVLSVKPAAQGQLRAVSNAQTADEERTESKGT
# Nucleotide-binding oligomerization domain-containing protein 1, sequence (Q9Y239 whole entry, the tested form may be a part): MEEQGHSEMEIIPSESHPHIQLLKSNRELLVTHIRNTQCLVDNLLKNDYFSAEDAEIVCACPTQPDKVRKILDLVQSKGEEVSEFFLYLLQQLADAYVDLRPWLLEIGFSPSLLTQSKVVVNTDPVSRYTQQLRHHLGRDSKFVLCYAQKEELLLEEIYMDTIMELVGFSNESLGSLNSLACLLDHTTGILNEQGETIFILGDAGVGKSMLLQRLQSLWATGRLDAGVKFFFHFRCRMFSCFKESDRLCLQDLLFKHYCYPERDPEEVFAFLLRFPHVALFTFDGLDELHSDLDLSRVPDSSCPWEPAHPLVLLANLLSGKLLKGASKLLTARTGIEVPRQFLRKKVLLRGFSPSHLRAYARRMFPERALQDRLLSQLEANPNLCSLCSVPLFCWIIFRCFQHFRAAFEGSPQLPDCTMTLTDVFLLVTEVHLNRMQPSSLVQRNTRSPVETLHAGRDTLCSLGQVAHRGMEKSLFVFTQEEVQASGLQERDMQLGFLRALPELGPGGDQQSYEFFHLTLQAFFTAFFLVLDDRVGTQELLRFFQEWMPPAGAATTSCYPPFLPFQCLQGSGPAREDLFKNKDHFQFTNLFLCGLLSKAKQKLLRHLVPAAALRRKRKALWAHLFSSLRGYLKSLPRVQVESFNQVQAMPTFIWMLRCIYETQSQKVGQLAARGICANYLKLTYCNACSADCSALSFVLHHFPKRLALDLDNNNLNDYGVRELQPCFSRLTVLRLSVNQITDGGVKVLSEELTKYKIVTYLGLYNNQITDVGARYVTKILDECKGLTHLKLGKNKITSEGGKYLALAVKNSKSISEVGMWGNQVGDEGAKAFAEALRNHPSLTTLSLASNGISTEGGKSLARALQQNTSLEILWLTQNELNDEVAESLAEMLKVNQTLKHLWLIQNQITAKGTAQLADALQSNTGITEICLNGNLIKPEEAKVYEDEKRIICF
# Tumor necrosis factor, sequence (P01375 whole entry, the tested form may be a part): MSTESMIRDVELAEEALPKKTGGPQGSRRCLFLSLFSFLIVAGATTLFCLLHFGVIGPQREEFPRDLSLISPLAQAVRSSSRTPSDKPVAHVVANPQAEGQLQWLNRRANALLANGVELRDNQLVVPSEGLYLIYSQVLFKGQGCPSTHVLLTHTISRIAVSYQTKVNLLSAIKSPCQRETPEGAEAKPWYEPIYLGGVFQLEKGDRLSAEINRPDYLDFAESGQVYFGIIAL
# Bcl-2-like protein 10, sequence (Q9HD36 whole entry): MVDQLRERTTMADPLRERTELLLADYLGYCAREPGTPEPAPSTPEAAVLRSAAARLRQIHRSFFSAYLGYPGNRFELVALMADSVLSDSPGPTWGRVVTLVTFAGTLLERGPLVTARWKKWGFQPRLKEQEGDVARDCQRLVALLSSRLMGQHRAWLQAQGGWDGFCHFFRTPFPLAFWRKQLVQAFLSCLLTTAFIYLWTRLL
# Protein Rev (Human immunodeficiency virus type 1 group M subtype B (isolate HXB2)(HIV-1), UniProt P04618), sequence (P04618 whole entry): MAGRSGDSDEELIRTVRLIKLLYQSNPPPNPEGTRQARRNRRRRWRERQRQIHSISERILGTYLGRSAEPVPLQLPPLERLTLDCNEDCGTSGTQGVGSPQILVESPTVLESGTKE
# Protein Rev (Human immunodeficiency virus type 1 group M subtype B (isolate WMJ22)(HIV-1), UniProt P05866), sequence (P05866 whole entry): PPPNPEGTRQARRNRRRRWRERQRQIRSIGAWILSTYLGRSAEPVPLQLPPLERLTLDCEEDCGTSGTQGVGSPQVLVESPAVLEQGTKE
# Protein phosphatase methylesterase 1, sequence (Q9Y570 whole entry): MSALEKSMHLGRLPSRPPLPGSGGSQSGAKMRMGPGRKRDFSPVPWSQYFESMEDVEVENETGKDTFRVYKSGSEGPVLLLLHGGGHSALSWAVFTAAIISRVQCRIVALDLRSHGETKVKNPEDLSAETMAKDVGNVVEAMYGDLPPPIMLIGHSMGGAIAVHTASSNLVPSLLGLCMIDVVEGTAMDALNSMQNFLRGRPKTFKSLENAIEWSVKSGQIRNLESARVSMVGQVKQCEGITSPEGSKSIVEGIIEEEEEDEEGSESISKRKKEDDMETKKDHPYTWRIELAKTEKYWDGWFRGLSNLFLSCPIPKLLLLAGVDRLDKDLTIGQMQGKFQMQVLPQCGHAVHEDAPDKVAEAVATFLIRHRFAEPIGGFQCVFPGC
structure (smiles),measurement,setting,value
CCN(CC)CCNC(=O)CCc1c(C)nc2c(c(C)nn2-c2ccc(C)cc2)c1C,IC50,[1],11.2 µM (not active)
O=C(C[n+]1ccc(C(=O)NN=Cc2ccc(O)cc2)cc1)c1ccccc1,IC50,Bcl-2-like protein 10,70.4 µM (inactive)
CCc1ccc2nc3nc(C)cc(C)c3c(N)c2c1,IC50,Protein Rev [2],58.8 µM (not active)
same,CC50,Vero,21.6 µM (active)
same,EC50,[3],3.35 µM (active)
same,AC50,[4],9.59 µM (active)
same,AC50,[5],3.58 µM (active)
Cn1c(=O)c2c(SCc3ccccc3)nc(-c3ccco3)nc2n(C)c1=O,EC50,[6],> 55.7 µM (not active)
same,EC50,[7],> 55.7 µM (not active)
CCOC(=O)c1c(NC(=O)CN2CCOCC2)sc2c1CC(C)(C)OC2,IC50,Tumor necrosis factor,> 20 µM (inactive)
same,IC50,[8],> 20 µM (inactive)
same,IC50,[9],> 20 µM (inactive)
same,IC50,HEK293,> 20 µM (inactive)
CS(=O)(=O)/C(C#N)=C/c1cccn1S(=O)(=O)c1cccc2ccccc12,IC50,[10],> 20 µM (inactive)
Nc1nnnn1/N=C/c1cc(Cl)ccc1O,IC50,Protein Rev [11],> 75.3 µM (not active)
same,IC50,[12],6.2 µM (active)
same,IC50,[13],35.1 µM (inactive)
same,IC50,[14],38.8 µM (inactive)
